From patent publication US8022091B2, “Triazole derivative” (Taisho Pharmaceutical Co., Ltd., priority 2006, dated 2011)

target: T1, human Edg-1 (S1P1) (Homo sapiens, UniProt P21453); experiment: S1P1 binding assay: inhibition of [33P]-S1P binding to membrane fraction of HEK-293 cells transferred with the human Edg-1 (S1P1) gene; details: test compound at 10 μM; inhibition of [33P]-S1P binding to the membrane fraction of HEK-293 cells expressing human Edg-1 (S1P1)
T1 construct: expressed in transfected cells; host or cells: HEK-293
Protocol: The membrane fraction was obtained by treating the cells with a solubilizing buffer (1 mM Tris/HCl, pH 7.2) for 10 minutes on ice, centrifuging at 1000×g for 5 minutes to remove insoluble fractions, and then centrifuging at 40000×g for 30 minutes at 4° C. The resulting membrane fraction was dissolved in a binding buffer (20 mM Tris-HCl, pH 7.4, 100 mM NaCl, 15 mM NaF, 2 mM deoxypyridoxine, 4 mg/mL fatty acid-free BSA), and then [^33P]-S1P (manufactured by ARC, final concentration 0.1 nM) and a DMSO solution (final concentration of the compound 10^−5M, final concentration of DMSO 0.1%) of the test compound were added. Thereafter, the mixture was stirred and then treated for one hour at 30° C. Using a harvester, the membrane fraction was harvested onto unifilter-96 GF/C filter (manufactured by Perkin Elmer), washing was carried out four times with the binding buffer, and the filter was dried. Twenty five μL Microscint 0 (manufactured by Perkin Elmer) was added, and radioactivity was measured using Top Count NXT (manufactured by Packard) to calculate the amount (A) of [^33P]-S1P bound to the membrane fraction at the time when the compound was added.
The same procedure was carried out in the absence of the test compound, and the amount (B) of [^33P]-S1P bound was calculated. Further, the same procedure was carried out in the absence of the test compound by use of HEK-293 cells to which no Edg-1 (S1P1) gene was introduced, and the background amount (C) of [^33P]-S1P bound was calculated.
Inhibition rate (%)=[1−(A−C)/(B−C)]×100
Further, concentrations (IC50) at the time when binding in the absence of the test compound was inhibited by 50% were calculated. The membrane system binding assay was carried out in the presence of test compounds with various concentrations, and the Edg-1 (S1P1) binding inhibition rates were calculated using the equation above. Then, IC50 values were calculated using Origin (Lightstone Corp.), a software for data analysis.

T1 sequence (P21453 whole entry): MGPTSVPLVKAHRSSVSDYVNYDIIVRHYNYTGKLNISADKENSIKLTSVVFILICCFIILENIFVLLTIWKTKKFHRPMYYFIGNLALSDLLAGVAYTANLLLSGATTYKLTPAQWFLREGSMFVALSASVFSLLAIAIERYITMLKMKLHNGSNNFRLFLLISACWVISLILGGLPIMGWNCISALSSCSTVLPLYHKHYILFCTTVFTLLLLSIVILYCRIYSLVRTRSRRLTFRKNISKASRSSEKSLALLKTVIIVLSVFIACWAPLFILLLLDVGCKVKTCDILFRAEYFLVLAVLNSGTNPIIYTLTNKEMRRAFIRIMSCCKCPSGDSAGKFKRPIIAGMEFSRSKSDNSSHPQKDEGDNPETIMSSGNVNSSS

SMILES	inhibition at 10 µM [%]
Cc1c(C)c(C)c(S(=O)(=O)N[C@H](C)c2nnc(Oc3ccc(F)cc3)n2C)c(C)c1C [Compound 220]	93.7
CCn1c(Oc2ccc(F)cc2)nnc1[C@@H](C)NS(=O)(=O)c1ccc(C#N)cc1 [Compound 223]	90.8
CCn1c(Oc2ccc(F)cc2)nnc1[C@@H](C)NS(=O)(=O)c1cccc(Cl)c1 [Compound 231]	65.1
CCn1c(Oc2ccc(F)cc2)nnc1[C@@H](C)NS(=O)(=O)c1ccc(C(C)C)cc1 [Compound 232]	68.7
CCn1c(Oc2ccc(F)cc2)nnc1[C@@H](C)NS(=O)(=O)c1ccc(F)c(F)c1F [Compound 237]	64.8
CCn1c(Oc2ccc(F)cc2)nnc1[C@@H](C)NS(=O)(=O)c1cc(F)c(F)cc1Cl [Compound 240]	82.5
CCn1c(Oc2ccc(F)cc2)nnc1[C@@H](C)NS(=O)(=O)c1cc(F)c(Cl)cc1F [Compound 243]	90
CCn1c(Oc2ccc(F)cc2)nnc1[C@@H](C)NS(=O)(=O)c1cc(Br)c(F)cc1F [Compound 244]	94.6
CCn1c(Oc2ccc(F)cc2)nnc1[C@@H](C)NS(=O)(=O)c1cc(Cl)c(F)cc1F [Compound 245]	89.3
CCn1c(Oc2ccc(F)cc2)nnc1[C@@H](C)NS(=O)(=O)c1cc(C(F)(F)F)ccc1Cl [Compound 251]	59
CCn1c(Oc2ccc(F)cc2)nnc1[C@@H](C)NS(=O)(=O)c1c(C)cc(Cl)cc1Cl [Compound 255]	86.4
CCn1c(Oc2ccc(F)cc2)nnc1[C@@H](C)NS(=O)(=O)c1cc(F)c(F)cc1F [Compound 256]	85.2
CCn1c(Oc2ccc(F)cc2)nnc1[C@@H](C)NS(=O)(=O)c1ccc(-c2ccno2)s1 [Compound 258]	67.9
CCn1c(Oc2ccc(F)cc2)nnc1[C@@H](C)NS(=O)(=O)c1ccc(F)c(C#N)c1 [Compound 261]	73.6
CCn1c(Oc2ccc(F)cc2)nnc1[C@@H](C)NS(=O)(=O)c1ccc(OC(F)F)cc1 [Compound 263]	82.6
CCn1c(Oc2ccc(F)cc2)nnc1[C@@H](C)NS(=O)(=O)c1cccc(OC(F)F)c1 [Compound 264]	95.9
CCn1c(Oc2ccc(F)cc2)nnc1[C@@H](C)NS(=O)(=O)c1c(F)cc(F)cc1Br [Compound 265]	59.1
CCn1c(Oc2ccc(F)cc2)nnc1[C@@H](C)NS(=O)(=O)c1cc(F)cc(F)c1 [Compound 266]	99
CCn1c(Oc2ccc(F)cc2)nnc1[C@@H](C)NS(=O)(=O)c1cc(F)c(F)c(F)c1 [Compound 268]	99.9
CCn1c(Oc2ccc(F)cc2)nnc1[C@@H](C)NS(=O)(=O)c1ccc(C(F)(F)F)cc1Br [Compound 270]	73
CCn1c(Oc2ccc(F)cc2)nnc1[C@@H](C)NS(=O)(=O)c1cc(C(F)(F)F)ccc1Br [Compound 271]	57.1
CCn1c(Oc2ccc(F)cc2)nnc1[C@@H](C)NS(=O)(=O)CC1CCCCC1 [Compound 286]	60.6
CCn1c(Oc2ccc(F)cc2)nnc1[C@@H](C)NS(=O)(=O)c1ccc2c(c1)OCCO2 [Compound 289]	106
CCn1c(Oc2ccc(F)cc2)nnc1[C@@H](C)NS(=O)(=O)c1ccc2nsnc2c1 [Compound 292]	107
CCn1c(Oc2ccc(F)cc2)nnc1[C@@H](C)NS(=O)(=O)c1ccsc1 [Compound 294]	50.8
CCn1c(Oc2ccc(F)cc2)nnc1[C@@H](C)NS(=O)(=O)c1ccc(C(F)(F)F)cc1Cl [Compound 303]	77.4

More lines, now with the values ahead:

inhibition at 10 µM [%]	SMILES
70.8	CCn1c(Oc2ccc(F)cc2)nnc1[C@@H](C)NS(=O)(=O)c1cc(F)ccc1C [Compound 219]
69.2	CCn1c(Oc2ccc(F)cc2)nnc1[C@@H](C)NS(=O)(=O)c1cc(C)ccc1OC [Compound 221]
80.4	CCn1c(Oc2ccc(F)cc2)nnc1[C@@H](C)NS(=O)(=O)c1ccc(Cl)cc1Cl [Compound 226]
51.4	CCn1c(Oc2ccc(F)cc2)nnc1[C@@H](C)NS(=O)(=O)c1ccc(F)cc1F [Compound 227]
53.9	CCn1c(Oc2ccc(F)cc2)nnc1[C@@H](C)NS(=O)(=O)c1cc(OC)ccc1OC [Compound 228]
87.1	CCn1c(Oc2ccc(F)cc2)nnc1[C@@H](C)NS(=O)(=O)c1cc(F)cc(Cl)c1C [Compound 233]
50.6	CCc1cc(Br)ccc1S(=O)(=O)N[C@H](C)c1nnc(Oc2ccc(F)cc2)n1CC [Compound 234]
82.9	CCn1c(Oc2ccc(F)cc2)nnc1[C@@H](C)NS(=O)(=O)c1ccc(Br)cc1C [Compound 235]
95.8	CCn1c(Oc2ccc(F)cc2)nnc1[C@@H](C)NS(=O)(=O)c1ccc(F)c(F)c1 [Compound 241]
85.9	CCn1c(Oc2ccc(F)cc2)nnc1[C@@H](C)NS(=O)(=O)c1ccc(Br)cc1F [Compound 242]
105	CCn1c(Oc2ccc(F)cc2)nnc1[C@@H](C)NS(=O)(=O)c1cc(C)c(Cl)cc1Cl [Compound 248]
82.8	CCn1c(Oc2ccc(F)cc2)nnc1[C@@H](C)NS(=O)(=O)c1cccc(F)c1 [Compound 252]
75.1	CCn1c(Oc2ccc(F)cc2)nnc1[C@@H](C)NS(=O)(=O)c1cc(Cl)ccc1OC [Compound 254]
78.2	CCn1c(Oc2ccc(F)cc2)nnc1[C@@H](C)NS(=O)(=O)c1cc(Br)ccc1Br [Compound 257]
74.1	CCn1c(Oc2ccc(F)cc2)nnc1[C@@H](C)NS(=O)(=O)c1ccc(Br)cc1Br [Compound 260]
79.6	CCn1c(Oc2ccc(F)cc2)nnc1[C@@H](C)NS(=O)(=O)c1cc(C)cc(C)c1 [Compound 262]
89.6	CCn1c(Oc2ccc(F)cc2)nnc1[C@@H](C)NS(=O)(=O)c1ccc(Cl)cc1F [Compound 267]
91.5	CCn1c(Oc2ccc(F)cc2)nnc1[C@@H](C)NS(=O)(=O)c1ccc(F)cc1Br [Compound 269]
104	CCn1c(Oc2ccc(F)cc2)nnc1[C@@H](C)NS(=O)(=O)c1ccc(C)c(F)c1 [Compound 272]
71.6	CCn1c(Oc2ccc(F)cc2)nnc1[C@@H](C)NS(=O)(=O)c1ccc(F)cc1C [Compound 273]
53.5	CCn1c(Oc2ccc(F)cc2)nnc1[C@@H](C)NS(=O)(=O)c1cc(Cl)ccc1F [Compound 274]
107	CCn1c(Oc2ccc(F)cc2)nnc1[C@@H](C)NS(=O)(=O)c1ccc(Br)c(F)c1 [Compound 275]
94.4	CCn1c(Oc2ccc(F)cc2)nnc1[C@@H](C)NS(=O)(=O)c1ccc(Br)cc1Cl [Compound 276]
79.6	CCn1c(Oc2ccc(F)cc2)nnc1[C@@H](C)NS(=O)(=O)c1cc(C)ccc1F [Compound 279]
87.3	CCn1c(Oc2ccc(F)cc2)nnc1[C@@H](C)NS(=O)(=O)c1cccc(Cl)c1F [Compound 280]
82.1	CCn1c(Oc2ccc(F)cc2)nnc1[C@@H](C)NS(=O)(=O)c1cc(C)sc1C [Compound 300]
78.8	CCn1c(Oc2ccc(F)cc2)nnc1[C@@H](C)NS(=O)(=O)c1ccc(OC)cc1OC [Compound 301]
